Key:
Assay type in all cases: in vivo
[1] = tested on: Erysiphe graminis f.sp.tritici; experiment: Erysiphe test (wheat)/protective; conditions: protective, application rate 125 g/ha, evaluation 6 days after inoculation
Method: Erysiphe Test (Wheat)/Protective To produce a suitable preparation of active compound, a commercial formulation of active compound or active compound combination is diluted with water to the desired concentration. To test for protective activity, young plants are sprayed with the active compound preparation at the stated application rate. After the spray coating has dried on, the plants are dusted with spores of Erysiphe graminis f.sp.tritici. The plants are placed in a greenhouse at a temperature of about 20° C. and a relative atmospheric humidity of about 80% to promote the development of mildew pustules. Evaluation is carried out 6 days after the inoculation. 0% means an efficacy which corresponds to that of the control, whereas an efficacy of 100% means that no infection is observed.

Leptosphaeria nodorum = Leptosphaeria nodorum test (wheat)/curative; conditions: curative, application rate 500 g/ha, evaluation 12 days after inoculation
Method: Leptosphaeria nodorum Test (Wheat)/Curative To produce a suitable preparation of active compound, a commercial formulation of active compound or active compound combination is diluted with water to the desired concentration. To test for curative activity, young plants are sprayed with a conidia suspension of Leptosphaeria nodorum. The plants remain in an incubation cabin at 20° C. and 100% relative atmospheric humidity for 48 hours and are then sprayed with the active compound preparation at the stated application rate. The plants are placed in a greenhouse at a temperature of about 15° C. and a relative atmospheric humidity of about 80%. Evaluation is carried out 12 days after the inoculation. 0% means an efficacy which corresponds to that of the control, whereas an efficacy of 100% means that no infection is observed.

[2] = tested on: Fusarium nivale var. majus; experiment: Fusarium nivale (var. majus) test (wheat)/curative; conditions: curative, evaluation 11 days after inoculation
Method: Fusarium nivale (var. majus) Test (Wheat)/Curative To produce a suitable preparation of active compound, a commercial formulation of active compound or active compound combination is diluted with water to the desired concentration. To test for curative activity, young plants are sprayed with a conidia suspension of Fusarium nivale var. majus. The plants remain in an incubation cabin at 15° C. and 100% relative atmospheric humidity for 24 hours and are then sprayed with the active compound preparation at the stated application rate. After the spray coating has dried on, the plants remain in a greenhouse under transparent incubation hoods at a temperature of about 15° C. and a relative atmospheric humidity of about 100%. Evaluation is carried out 11 days after the inoculation. 0% means an efficacy which corresponds to that of the control, whereas an efficacy of 100% means that no infection is observed.

OC(Cc1ccccc1Cl)(Cn1nc[nH]c1=S)C1(Cl)CC1 (stereo not drawn) [(II) prothioconazole, prothioconazole]
Efficacy in % [1]: 78% | Efficacy in % (Leptosphaeria nodorum): 20% | Efficacy in % found ([2]; application rate 55 g/ha): 17%

CC(C)(C)C(O)(CCc1ccc(Cl)cc1)Cn1cncn1 (stereo not drawn) [(III) tebuconazole, tebuconazole]
Efficacy in % [1]: 78% | Efficacy in % (Leptosphaeria nodorum): 40% | Efficacy in % found ([2]; application rate 55 g/ha): 33%

CCCN(CC)CC1COC2(CCC(C(C)(C)C)CC2)O1 (stereo not drawn) [(I) spiroxamine, 8-tert-butyl-1,4-dioxaspiro[4.5]decan-2-ylmethyl(ethyl)(propyl)amine]
Efficacy in % [1]: 33% | Efficacy in % (Leptosphaeria nodorum): 0% | Efficacy in % found ([2]; application rate 140 g/ha): 17%
